US12233073B2, “Skin care formulations and skin cancer treatment” (Regents of the University of Minnesota, priority 2017, dated 2025)

Experiments:
[1] = Absorption of sUV wavelengths by the PRPK inhibitors; type: physicochemical; conditions: for absorption of sUV wavelengths: UVB or UVA range (280 to 400 nm)
Experimental: To assess whether the effectiveness of rocuronium bromide or betamethasone 17-valerate was related to absorption or attenuation of sUV wavelengths, instead of or in addition to inhibition of PRPK phosphorylation, absorption of sUV wavelengths by rocuronium bromide or betamethasone 17-valerate was evaluated. […] The maximum absorption wavelength for rocuronium bromide was 227 nm, and that for betamethasone-17-valerate was 240 nm.

PRPK in A431 lysates = molecular target: T1, PRPK in A431 lysates (Homo sapiens, UniProt Q96S44); assay: Ex vivo binding assay, drug-conjugated Sepharose 4B beads with A431 cell lysates; conditions: pull-down with drug-conjugated Sepharose 4B beads
T1 construct: endogenous in cells; host or cells: A431
T1 sequence (Q96S44 1-253): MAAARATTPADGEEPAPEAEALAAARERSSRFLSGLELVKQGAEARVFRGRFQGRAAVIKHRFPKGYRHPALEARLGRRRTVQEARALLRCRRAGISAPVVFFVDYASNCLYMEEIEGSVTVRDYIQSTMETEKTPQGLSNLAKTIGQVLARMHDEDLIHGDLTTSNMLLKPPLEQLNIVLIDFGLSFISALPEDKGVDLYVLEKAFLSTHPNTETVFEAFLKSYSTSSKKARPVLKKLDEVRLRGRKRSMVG
Experimental: (§1) The interaction between rocuronium bromide and PRPK, and the inhibition of PRPK phosphorylation by rocuronium bromide was evaluated. In vitro and ex vivo binding assays were conducted using GST-PRPK or A431 cell lysates and rocuronium bromide-conjugated Sepharose 4B beads. FIG. 13A is a photograph illustrating a chromatographic plate showing the interaction and binding of PRPK with rocuronium bromide in A431 cells. FIG. 13B is a photograph illustrating a chromatographic plate showing the interaction and binding of rocuronium bromide with wildtype PRPK recombinant GST protein.
as §1, with “betamethasone 17-valerate” for “rocuronium bromide”, “using recombinant” for “using”, “betamethasone 17-valerate-conjugated” for “rocuronium bromide-conjugated”, “14A” for “13A”, “14B” for “13B”

[2] = system: SSL-induced skin carcinogenesis in SKH-1 hairless mice; assay: Chronic SSL-induced skin carcinogenesis in SKH-1 hairless mice (early-stage and late-stage prevention models); type: in vivo, mouse; conditions: for SSL-induced neovascularization in tumor areas: early- and late-stage models (FIGS. 23, 24A, 24B); for SSL-induced skin carcinogenesis: topical cream 0.1% or 1%; for Ki-67 expression / PRPK phosphorylation: skin staining, FIGS. 23, 24A, 24B
Experimental: The effectiveness of rocuronium bromide (EXAMPLES 11 and 12) and betamethasone 17-valerate (EXAMPLE 13) in mouse models of chronic sUV-induced skin carcinogenesis was evaluated. Female SKH-1 hairless mice (5 weeks old, Charles River, Burlington, MA) were used. Skin carcinogenesis was induced by SSL-irradiation source lamps. […] For topical treatment to the dorsal mouse skin, cream (oil-in-water emulsions) containing 0.1% or 1% (0.1 or 1 mg in 100 μl) of rocuronium bromide or betamethasone 17-valerate were prepared. The models included early-stage prevention models (EXAMPLE 11) and a late-stage prevention models (EXAMPLES 12 and 13). […] SSL treatment was for 15 weeks and the drug cream was continued for 29 weeks. In the late-stage model, mice received SSL for 15 weeks at which time they began receiving topical application with rocuronium bromide or betamethasone 17-valerate. For the early stage model, SKH-1 hairless mice were divided into groups as follows: Groups 1 and 2 were negative control groups, untreated and treated with only cream vehicle with no SSL exposure; Group 3=1% rocuronium bromide; Group 4=SSL alone without cream; Group 5=SSL with cream only; Group 6=0.1% rocuronium bromidein cream with SSL; Group 7=1% rocuronium bromide in cream with SSL. For the late stage models, groups were as follows: Groups 8 and 9 were negative control groups, untreated and treated with only cream vehicle with no SSL exposure; Group 10=1% rocuronium bromide only; Group 11=1% betamethasone 17-valerate only; Group 12=SSL alone with cream; Group 13=SSL with 0.1% rocuronium bromide; Group 14=1% rocuronium bromide in cream with SSL; Group 15=0.1% betamethasone 17-valerate in cream with SSL; and Group 16=1% […] betamethasone 17-valerate in cream with SSL. An antibiotic ointment was applied to the eyes of each mouse prior to SSL exposure and body weight and tumor volume were measured each week.

[3] = molecular target: T2, wildtype PRPK recombinant GST protein (Homo sapiens, UniProt Q96S44); assay: In vitro binding assay, drug-conjugated Sepharose 4B beads with GST-PRPK; conditions: pull-down with drug-conjugated Sepharose 4B beads
T2 sequence (Q96S44 1-253): T1 sequence (Q96S44 1-253)
Experimental: as §1
as §1, with “betamethasone 17-valerate” for “rocuronium bromide”, “using recombinant” for “using”, “betamethasone 17-valerate-conjugated” for “rocuronium bromide-conjugated”, “14A” for “13A”, “14B” for “13B”

[4] = system: cyclobutane pyrimidine dimers (CPD); assay: Cyclobutane pyrimidine dimer (CPD) formation in skin of SKH1 hairless mice exposed to acute SSL; type: in vivo, mouse; conditions: topical 0.1% or 1%
Experimental: The effect of rocuronium bromide treatment and betamethasone 17-valerate treatment on the formation of cyclobutene pyrimidine dimers was evaluated. sUV-induced DNA damage, predominantly observed as the formation of cyclobutane pyrimidine dimers (CPD), is recognized as an important molecular trigger for the initiation of sUV-induced immunosuppression and carcinogenesis in the skin. FIG. 19A is a chart comparing effect of rocuronium bromide treatment and betamethasone 17-valerate treatment on the formation of cyclobutene pyrimidine dimers in skin tissues from SKH1 hairless mice exposed to acute SSL. FIG. 19C is a photographic array comparing amount of CPD in immunologically stained control mouse skin samples. FIG. 19D is a photographic array comparing amount of CPD in immunologically stained mouse skin samples exposed only to a vehicle. FIG. 19E is a photographic array comparing amount of CPD in immunologically stained mouse skin samples exposed to rocuronium bromide alone. FIG. 19F is a photographic array comparing amount of CPD in immunologically stained mouse skin samples exposed to betamethasone 17-valerate alone. FIG. 19G is a photographic array comparing amount of CPD in immunologically stained mouse skin samples exposed to SSL alone. FIG. 19H is a photographic array comparing amount of CPD in immunologically stained mouse skin samples exposed to SSL with the vehicle. […]

| Structure (SMILES) | maximum absorption wavelength [1] | absorption of sUV wavelengths [1] | binding to PRPK in A431 lysates (PRPK in A431 lysates) | SSL-induced neovascularization in tumor areas [2] | tumor number ([2]; late-stage model) | tumor volume ([2]; late-stage model) | SSL-induced skin carcinogenesis ([2]; late-stage model) | Ki-67 expression [2] | PRPK phosphorylation [2] | binding to GST-PRPK [3] | sUV-induced CPD production [4] | levels of COX-2 in SKH-1 hairless mouse skin ([2]; FIGS. 20C, 21C) | levels of MMP-9 in SKH-1 hairless mouse skin ([2]; FIGS. 20C, 21C) | levels of cyclin D1 in SKH-1 hairless mouse skin ([2]; FIGS. 20C, 21C) | levels of phosphorylated PRPK in SKH-1 hairless mouse skin ([2]; FIGS. 20C, 21C) | tumor volume ([2]; early-stage model (FIG. 20A)) | tumor number ([2]; early-stage model (FIG. 20B)) | SSL-induced skin carcinogenesis ([2]; early-stage model) |
| --- | --- | --- | --- | --- | --- | --- | --- | --- | --- | --- | --- | --- | --- | --- | --- | --- | --- | --- |
| CCCCC(=O)O[C@]1(C(=O)CO)[C@@H](C)C[C@H]2[C@@H]3CCC4=CC(=O)C=C[C@]4(C)[C@@]3(F)[C@@H](O)C[C@@]21C [betamethasone 17-valerate] | 240 nm | do not Substantially Absorb or Block | binds | inhibited | reduces | reduces | reduced | inhibited | inhibited | binds | reduced |  |  |  |  |  |  |  |
| C=CC[N+]1([C@H]2C[C@H]3[C@@H]4CC[C@H]5C[C@H](O)[C@@H](N6CCOCC6)C[C@]5(C)[C@H]4CC[C@]3(C)[C@H]2OC(C)=O)CCCC1 [rocuronium bromide] | 227 nm | do not Substantially Absorb or Block | binds | inhibited | decreased | decreased | reduced | inhibited | inhibited | binds | reduced | suppressed | suppressed | suppressed | suppressed | decreased | decreased | reduced |
